Here are results for 25 molecules from US20250388604A1, “Compounds and Their Use as PDE4 Activators” (Mironid Limited, priority 2022, published 2025).

The test system of the first experiment is m-IMCD3 cells. As to the kind of experiment: Inhibition of PGE2-stimulated in vitro cyst formation in m-IMCD3 cells. The experiment is classed as cell-based, mouse. Conditions: 3 μM; mean cyst area, 100% for (DMSO + PGE2) and 0% for DMSO control; 6 days of culture. How it is done:
HEK 293 and MDCK cells (Public Health England, Cell Culture Collections) were maintained in Dulbecco's Modified Eagle's Medium (DMEM) supplemented with 10% (v/v) fetal bovine serum (FBS) (Seralab), 2 mM L-glutamine and 100 U/mL penicillin streptomycin cocktail (ThermoFisher); termed complete media. Clonal HEK 293 cell lines were maintained in complete media supplemented with 0.6 mg/ml G418 (Enzo Life Sciences). Mouse inner medullary collecting duct (m-IMCD3) cells [American Type Culture Collection (ATCC)] were maintained in media consisting of DMEM/Hams F-12 50/50 Mix (DMEM F12; Corning) supplemented with penicillin streptomycin cocktail (100 U/mL) and FBS (10% v/v) (DMEM F12-10% FBS).
The mouse Inner Medullary Collecting Duct cell line (m-IMCD3) spontaneously forms cystic spheroids in 3D culture with a Type 1 collagen/Matrigel extracellular matrix. This process can be stimulated with agents which raise intracellular cAMP and is used as an in vitro model for the formation of cystic structures in the kidneys of patients with ADPKD.
Rat Collagen I (Fisher Scientific) is prepared on ice by neutralising with 1M NaOH and diluting with a 2× volume of DMEM/F12+10% FBS. This is mixed 1:1.1 with ice cold Matrigel (Corning) for coating plates (coating mix), and 1:0.93 with Matrigel for cell plating (plating mix).
The assay is conducted in the wells of a 96-well plate culture dish using a total volume of 130 μL of collagen/Matrigel/DMEM F12-10% FBS suspension in growth media for each matrix plug per individual well. Initially, 30 μL of collagen/Matrigel/DMEM F12-10% FBS (coating mix) is added into the well of a 96 well plate and the collagen is set to a gel by incubating at 37° C. for at least 15 minutes. A second layer of 100 μL collagen/Matrigel suspension (plating mix) containing m-IMCD3 cells (2.75×10^6 m-IMCD3 cells per 96-well plate) is layered over the coating mix and the collagen/Matrigel/cell mix again set to a gel by incubating at 37° C. Cell cultures are maintained at 37° C. in an atmosphere of 5% CO2, 95% air.
Between 18 and 24 h after plating, test compound(s) as DMSO stock solutions [0.1% (v/v) final DMSO concentration] and PGE2 (100 nM final concentration) in DMEM F12-10% FBS are added in quadruplicate wells per condition. Media, together with the test compound and PGE2 are replenished after 2 or 3 days. After 6 days of culture z stack images of the wells are captured using the Nikon Eclipse Ti2-E microscope. Nikon General Analysis software is used to measure the following parameters in each well: the mean cyst area, the number of cysts, and the total cyst area.
PDE4 long form activators inhibited in vitro cyst formation in m-IMCD3 cells. Data are shown in Table 4 as mean cyst area (%), compared to 100% for (DMSO+PGE2) and 0% for DMSO control.
Regarding `CC(C(=O)N1CCc2nc(N3C4CCC3CNC4)sc2C1)C(C)(C)C` (single isomer, unassigned) [Example 159, 1-(2-(3,8-diazabicyclo[3.2.1]octan-8-yl)-6,7-dihydrothiazolo[5,4-c]pyridin-5(4H)-yl)-2,3,3-trimethylbutan-1-one], the “% Cyst area after incubation with 3 μM test compound” value is on record as 0%.

The same experiment, now with this note: Mus musculus, mIMCD3, 144 h, 3 μM; mean cyst area, 100% for (DMSO + PGE2) and 0% for DMSO control; 6 days of culture; read-out: % Cyst area after incubation with 3 μM test compound.
For `CC(F)(F)c1ccccc1C(=O)N1CCc2nc(N3C4CCC3CNC4)sc2C1` [Example 223, (2-(3,8-diazabicyclo[3.2.1]octan-8-yl)-6,7-dihydrothiazolo[5,4-c]pyridin-5(4H)-yl)(2-(1,1-difluoroethyl)phenyl)methanone], the activity at 3 µM came to 14%.
On the same count and under the same terms, for `COc1cccc(C#N)c1OCC(=O)N1CCc2nc(N3C4CCC3CNC4)sc2C1` [Example 168, 2-(2-(2-(3,8-diazabicyclo[3.2.1]octan-8-yl)-6,7-dihydrothiazolo[5,4-c]pyridin-5(4H)-yl)-2-oxoethoxy)-3-methoxybenzonitrile] the value was -3%.
On to `COc1cccc(OC)c1OCC(=O)N1CCc2nc(N3C4CCC3CNC4)sc2C1` [Example 172, 1-(2-(3,8-diazabicyclo[3.2.1]octan-8-yl)-6,7-dihydrothiazolo[5,4-c]pyridin-5(4H)-yl)-2-(2,6-dimethoxyphenoxy)ethan-1-one], for which the activity at 3 µM was determined as 10%.
Turning to `CCN1CCN(c2nc3c(s2)CN(C(=O)CC(C)(C)C)CC3)CC1` [Example 299, 1-(2-(4-ethylpiperazin-1-yl)-6,7-dihydrothiazolo[5,4-c]pyridin-5(4H)-yl)-3,3-dimethylbutan-1-one], the activity at 3 µM came to 3%.
On the same count and under the same terms, the figure for `O=C(c1cccc2c1OCC2)N1CCc2nc(N3C4CCC3CNC4)sc2C1` [Example 230, (2-(3,8-diazabicyclo[3.2.1]octan-8-yl)-6,7-dihydrothiazolo[5,4-c]pyridin-5(4H)-yl)(2,3-dihydrobenzofuran-7-yl)methanone] is 22%; for `Cc1ccc(-c2nc3c(s2)CN(C(=O)CC2CCCC2)CC3)cn1` [Example 305, 2-cyclopentyl-1-(2-(6-methylpyridin-3-yl)-6,7-dihydrothiazolo[5,4-c]pyridin-5(4H)-yl)ethan-1-one] it is 26%; for `O=C(c1ccccc1F)N1CCc2nc(N3C4CCC3CNC4)sc2C1` [Example 209, (2-(3,8-diazabicyclo[3.2.1]octan-8-yl)-6,7-dihydrothiazolo[5,4-c]pyridin-5(4H)-yl)(2-fluorophenyl)methanone] it is -5%.
`O=C(C1CCc2ccccc2O1)N1CCc2nc(N3C4CCC3CNC4)sc2C1` (stereo not shown) [Example 181, (2-(3,8-diazabicyclo[3.2.1]octan-8-yl)-6,7-dihydrothiazolo[5,4-c]pyridin-5(4H)-yl)(chroman-2-yl)methanone]: the activity at 3 µM was found to be 5%.
As for `Cc1ccccc1C(=O)N1CCc2nc(N3C4CCC3CNC4)sc2C1` [Example 194, (2-(3,8-diazabicyclo[3.2.1]octan-8-yl)-6,7-dihydrothiazolo[5,4-c]pyridin-5(4H)-yl)(o-tolyl)methanone], the activity at 3 µM was determined as 1%.
With `CC(C)C(C)(C)C(=O)N1CCc2nc(N3C4CCC3CNC4)sc2C1` [Example 161, 1-(2-(3,8-diazabicyclo[3.2.1]octan-8-yl)-6,7-dihydrothiazolo[5,4-c]pyridin-5(4H)-yl)-2,2,3-trimethylbutan-1-one], the activity at 3 µM is -3%.
On to `O=C(N[C@H]1CCOc2ccccc21)N1CCc2nc(N3CCNCC3)sc2C1` [Example 296, (S)—N-(chroman-4-yl)-2-(piperazin-1-yl)-6,7-dihydrothiazolo[5,4-c]pyridine-5(4H)-carboxamide], for which the activity at 3 µM was determined as 33%.

Still in this experiment, the particulars now being: Mus musculus, mIMCD3, 144 h, 10 μM; mean cyst area, 100% for (DMSO + PGE2) and 0% for DMSO control; 6 days of culture; read-out: % Cyst area after incubation with 10 μM test compound.
Regarding `CC1(C)CCCN1C(=O)N1CCc2nc(N3C4CCC3CNC4)sc2C1` [Example 120, (2-(3,8-diazabicyclo[3.2.1]octan-8-yl)-6,7-dihydrothiazolo[5,4-c]pyridin-5(4H)-yl)(2,2-dimethylpyrrolidin-1-yl)methanone], the activity at 10 µM stood at 2%.
Still for that read-out and setting: the figure for `N#CC(C(=O)N1CCc2nc(N3C4CCC3CNC4)sc2C1)C1CCCC1` (stereo not shown) [Example 152, 3-(2-(3,8-diazabicyclo[3.2.1]octan-8-yl)-6,7-dihydrothiazolo[5,4-c]pyridin-5(4H)-yl)-2-cyclopentyl-3-oxopropanenitrile] is 4%; for `O=C(COc1ccc(F)cc1)N1CCc2nc(N3CCNCC3)sc2C1` [Example 110, 2-(4-fluorophenoxy)-1-(2-(piperazin-1-yl)-6,7-dihydrothiazolo[5,4-c]pyridin-5(4H)-yl)ethan-1-one] it is -5%.
As for `CN1CC2CCC(C1)N2c1cc2n(n1)CCN(C(=O)NC1CCC(F)(F)CC1)C2` [Example 85, N-(4,4-difluorocyclohexyl)-2-(3-methyl-3,8-diazabicyclo[3.2.1]octan-8-yl)-6,7-dihydropyrazolo[1,5-a]pyrazine-5(4H)-carboxamide], the activity at 10 µM was -2%.
For the molecule `O=C(N1CCc2nc(N3C4CCC3CNC4)sc2C1)C1(F)CCCC1` [Example 151, (2-(3,8-diazabicyclo[3.2.1]octan-8-yl)-6,7-dihydrothiazolo[5,4-c]pyridin-5(4H)-yl)(1-fluorocyclopentyl)methanone], the activity at 10 µM stood at 5%.
Take `CC(C)CC(=O)N1CCc2nc(N3C4CCC3CNC4)sc2C1` [Example 9, 1-(2-(3,8-diazabicyclo[3.2.1]octan-8-yl)-6,7-dihydrothiazolo[5,4-c]pyridin-5(4H)-yl)-3-methylbutan-1-one]: the activity at 10 µM was determined as 0%.
Same read-out and setting: for `CN1CC2CCC(C1)N2c1cc2n(n1)CCN(C(=O)CC1CCC(F)(F)CC1)C2` [Example 86, 2-(4,4-difluorocyclohexyl)-1-(2-(3-methyl-3,8-diazabicyclo[3.2.1]octan-8-yl)-6,7-dihydropyrazolo[1,5-a]pyrazin-5(4H)-yl)ethan-1-one] the value was -1%.
The same measure, in the same setting: for `O=C(CC1CCCC1)N1Cc2sc(N3C4CCC3CNC4)nc2C2(CCOCC2)C1` [Example 266, 1-(2′-(3,8-diazabicyclo[3.2.1]octan-8-yl)-2,3,5,6-tetrahydro-4′H-spiro[pyran-4,7′-thiazolo[5,4-c]pyridin]-5′(6′H)-yl)-2-cyclopentylethan-1-one] the value was 40%.
On the same count and under the same terms, for `CC[C@@H](C)C(=O)N1CCc2nc(N3C4CCC3CNC4)sc2C1` [Example 16, (2R)-1-(2-(3,8-diazabicyclo[3.2.1]octan-8-yl)-6,7-dihydrothiazolo[5,4-c]pyridin-5(4H)-yl)-2-methylbutan-1-one] the value was -2%.
`CC(C)OCC(=O)N1CCc2nc(N3C4CCC3CNC4)sc2C1` [Example 4, 1-(2-(3,8-diazabicyclo[3.2.1]octan-8-yl)-6,7-dihydrothiazolo[5,4-c]pyridin-5(4H)-yl)-2-isopropoxyethan-1-one]: the activity at 10 µM came out at 12%.
In the case of `O=C(CC1CCC(F)(F)CC1)N1CCn2nc(N3C4CCC3CNC4)cc2C1` [Example 71, 1-(2-(3,8-diazabicyclo[3.2.1]octan-8-yl)-6,7-dihydropyrazolo[1,5-a]pyrazin-5(4H)-yl)-2-(4,4-difluorocyclohexyl)ethan-1-one], the activity at 10 µM is -3%.
Consider `CN1CC2CCC(C1)N2c1nc2c(s1)CN(C(=O)COc1ccnc(F)c1)CC2` [Example 79, 2-((2-fluoropyridin-4-yl)oxy)-1-(2-(3-methyl-3,8-diazabicyclo[3.2.1]octan-8-yl)-6,7-dihydrothiazolo[5,4-c]pyridin-5(4H)-yl)ethan-1-one], for which the activity at 10 µM was -2%.
Turning to `O=C(N1CCc2nc(N3C4CCC3CNC4)sc2C1)N1CCC2(CCC2)C1` [Example 123, (2-(3,8-diazabicyclo[3.2.1]octan-8-yl)-6,7-dihydrothiazolo[5,4-c]pyridin-5(4H)-yl)(6-azaspiro[3.4]octan-6-yl)methanone], the activity at 10 µM was -4%.
